One data set deals with genotype 1 HCV. The data set can be described thus: Sofosbuvir 400 mg vs 200 mg once daily with additional HCV therapeutics for 24 weeks. The data set is classed as in vivo, Hepatitis C virus. As to the method: (§1) Safety and tolerability appeared similar across both dose levels. In addition, when sofosbuvir 400 mg once daily plus other HCV therapeutics were given to genotype 2 or 3 HCV infected patients, 100% SVR24 was observed.

Data set [1] in a line: Sofosbuvir single dose exposure, 200 mg tablets. The data set is classed as in vivo, human. The settings on record: single doses up to 1200 mg. How it is done:
(§2) The mean sofosbuvir major metabolite AUCtau for the 400 mg sofosbuvir dose is associated with approximately 77% of the maximal HCV RNA change from baseline achievable as determined by this model, a value which is on the cusp of the plateau of the exposure-response sigmoidal curve. In a sigmoidal Emax model, there is a relatively linear exposure-response relationship in the 20 to 80% maximal effect range. Therefore, given that sofosbuvir exposure with 200 mg tablets appears dose-proportional with single doses up to 1200 mg, doses below 400 mg are expected to yield considerable reductions in the magnitude of HCV RNA change from baseline.

The next data set relates to HCV RNA. The data set can be described thus: Emax PK/PD modeling of sofosbuvir dose. The arrangement: species or system Hepatitis C virus. The settings on record: 400 mg sofosbuvir dose, Emax model. As to the method: The sofosbuvir dose selected for the tablet formulation is 400 mg once daily. Support for the 400 mg sofosbuvir dose can be derived from Emax PK/PD modeling with early virological and human exposure data which also supports the selection of a 400 mg sofosbuvir dose over others tested.
as §2

Data set [2] is described as follows: PK drug-drug interaction between SOF and Compound I. It counts as in vivo, human. The conditions noted are these: for AUCinf % GLSM Ratio (SOF + Compound I/SOF) (90% CI) / AUClast % GLSM Ratio (SOF + Compound I/SOF) (90% CI) / Cmax % GLSM Ratio (SOF + Compound I/SOF) (90% CI): SOF 400 mg + Compound I 150 mg vs SOF 400 mg.
Another data set concerns genotype 2 or 3 HCV. The data set can be described thus: Sofosbuvir 400 mg once daily plus other HCV therapeutics, SVR24. The data set is classed as in vivo, Hepatitis C virus. The conditions noted are these: genotype 2 or 3 HCV infected patients. How it is done: as §1
Data set [3] can be described thus: Single and multiple oral doses of Compound I: pharmacokinetics. The settings on record: human, in vivo.
A short description of data set [4]: Spray dry feed solution solvent evaluation: solubility. The conditions noted are these: Ethanol, methanol, acetone, and dichloromethane. It counts as physicochemical. As to the method: The feed solution was initially evaluated for appropriate solvent with regard to solubility, stability, and viscosity. […] Ethanol and methanol-based feed stocks were assessed for preparation ease and spray dried at a range of inlet and outlet temperatures to assess the robustness of the spray dry process. Both solvents gave rapid dissolution of Compound I and copovidone.

Data set [5] can be described thus: Chemical stability in ethanolic feed solution. The data set is classed as physicochemical.
Data set [6] in a line: Food effect on Compound I solid dispersion as single agent. It counts as in vivo, human. The settings on record: Compound I 100 mg.
The subject of the next data set is genotype 1-6 HCV. The data set can be described thus: Compound I 3-day monotherapy study. It counts as in vivo, Hepatitis C virus.
[7] abbreviates: SOF 400 mg single dose alone, GLSM.
Setting [8] is: human, in vivo, SOF 400 mg + Compound I 150 mg, GLSM.
Setting [9] is: SOF 400 mg + Compound I 150 mg, GLSM.
Setting [10] is: SOF 400 mg + Compound I 150 mg vs Compound I 150 mg.

Like-named read-outs stand apart in the source and are kept apart here.

As to `CC(C)OC(=O)[C@H](C)N[P@](=O)(OC[C@H]1O[C@@H](n2ccc(=O)[nH]c2=O)[C@](C)(F)[C@@H]1O)Oc1ccccc1` [sofosbuvir, (S)-isopropyl 2-(((S)-(((2R,3R,4R,5R)-5-(2,4-dioxo-3,4-dihydropyrimidin-1(2H)-yl)-4-fluoro-3-hydroxy-4-methyltetrahydrofuran-2-yl)methoxy)(phenoxy)phosphoryl)amino)propanoate, reference compound], the “Safety and tolerability across both dose levels” value in the data set on genotype 1 HCV (400 mg vs 200 mg once daily) was “similar”. For the same compound, in the data set on genotype 1 HCV (genotype 1 HCV infected patients, with additional HCV therapeutics for 24 weeks), the “SVR rates, 400 mg once daily compared to 200 mg once daily” value is “higher SVR rates”. Further, the “dose proportionality of exposure” value in [1] is “dose-proportional”. Also, in the data set with HCV RNA, the “fraction of the maximal HCV RNA change from baseline achievable, associated with mean major metabolite AUCtau” value is recorded as “approximately 77%”. Moreover, in [2], the “AUCinf % GLSM Ratio (SOF + Compound I/SOF) (90% CI)” value (“AUCinf % GLSM Ratio … (90% CI)” for short) was 237.77 (214.27, 263.85) %; the “AUClast % GLSM Ratio (SOF + Compound I/SOF) (90% CI)” value (“AUClast % GLSM Ratio … (90% CI)” for short) is 238.10 (214.62, 264.16) %; the “Cmax % GLSM Ratio (SOF + Compound I/SOF) (90% CI)” value was 181.06 (149.43, 219.38) %; the “increase in AUC when SOF coadministered with Compound I” value is on record as approximately 2.4 fold. In addition, the “increase in Cmax when SOF coadministered with Compound I” value in data set [2] is listed as “approximately 1.8 fold”. The same compound came in with an AUCinf in data set [2] (setting [7]) of 1159.50 ng·h/mL. Also, in data set [2] (setting [8]), the AUC(0-inf) (in general, the area under the concentration-time curve extrapolated to infinity) worked out at 2760 ng·h/mL and the AUC(0-t) (usually exposure summed from dosing to a finite time, without extrapolation to infinity) stood at 2750 ng·h/mL. Also, the Cmax (as a rule, the peak of the concentration-time curve) in [2] (human, in vivo, SOF 400 mg + Compound I 150 mg, GLSM, read-out: Cmax) turned out to be 1590 ng/mL. This compound also came in with an AUC(0-t) in data set [2] (human, in vivo, SOF 400 mg single dose alone, GLSM) of 1150 ng·h/mL. Further, the Cmax in data set [2] (human, in vivo, SOF 400 mg single dose alone, GLSM, read-out: Cmax) turned out to be 880 ng/mL. Further, the SVR24 in the data set with genotype 2 or 3 HCV worked out at 100%.
In the case of `C[C@@]1(F)[C@H](O)[C@@H](CO)O[C@H]1n1ccc(=O)[nH]c1=O` [SOF metabolite II], in [2], the “AUCinf % GLSM Ratio … (90% CI)” value is 116.32 (110.99, 121.90) %; the “AUClast % GLSM Ratio … (90% CI)” value is recorded as 112.86 (107.90, 118.05) %; the “Cmax % GLSM Ratio (SOF + Compound I/SOF) (90% CI)” value is 64.17 (58.45, 70.44) %. Also, in data set [2] (setting [9]), the AUCinf is given as 13,774.96 ng · h/mL, the AUClast is given as 12,610.86 ng · h/mL and the Cmax came to 693.62 ng/mL. In data set [2] (setting [7]), the AUCinf is reported as 11,842.52 ng · h/mL, the AUClast is 11,173.87 ng · h/mL and the Cmax was 1080.97 ng/mL.
Take `COC[C@H]1C[C@@H](c2ncc(-c3ccc4c(c3)COc3cc5c(ccc6nc([C@@H]7CC[C@H](C)N7C(=O)[C@@H](NC(=O)OC)C(C)C)[nH]c65)cc3-4)[nH]2)N(C(=O)[C@H](NC(=O)OC)c2ccccc2)C1` [Compound I, methyl {(2S)-1-[(2S,5S)-2-(9-{2-[(2S,4S)-1-{(2R)-2-[(methoxycarbonyl)amino]-2-phenylacetyl}-4-(methoxymethyl)pyrrolidin-2-yl]-1H-imidazol-5-yl}-1,11-dihydroisochromeno[4′,3′ 6,7]naphtho[1,2-d]imidazol-2-yl)-5-methylpyrrolidin-1-yl]-3-methyl-1-oxobutan-2-yl}carbamate]: the CL/F in data set [3] (5 mg) is reported as 58,398.0 mL/h; in data set [3] (50 mg), 19,188.4 mL/h; in [3] (100 mg) it was 24,617.9 mL/h; in [3] (450 mg) it was 53,676.4 mL/h. Also, the “solubility in feed solvent” value in data set [4] is given as “excellent solubility”. The chemical stability result in [5] is reported as “good chemical stability”. Further, the “AUCinf % GLSM Ratio (Fed/Fasted)” value is reported as 86.30% in data set [6] (HFM) and 124.72% in data set [6] (Light Breakfast). Moreover, the “AUClast % GLSM Ratio (Fed/Fasted)” value in data set [6] (HFM) came to 86.02%; in data set [6] (Light Breakfast), 124.84%. Also, the results for the “Cmax % GLSM Ratio (Fed/Fasted)” value in data set [6] (HFM) and in data set [6] (Light Breakfast) were 75.02% and 134.89%, respectively. Also, the Ctau in [2] (Compound I 150 mg multiple doses alone, GLSM) is on record as 101.09 ng/mL; in data set [2] (setting [9]), 118.90 ng/mL. Besides, the “AUCtau % GLSM Ratio (SOF + Compound I/Compound I) (90% CI)” value in data set [2] (setting [10]) is 111.71 (107.54, 116.04) %. Besides, the “Cmax % GLSM Ratio (SOF + Compound I/Compound I) (90% CI)” value in data set [2] (setting [10]) is given as 105.94 (101.86, 110.20) %. Moreover, the “Ctau % GLSM Ratio (SOF + Compound I/Compound I) (90% CI)” value in data set [2] (setting [10]) is given as 117.61 (111.94, 123.57) %. The AUC (as a rule, concentration integrated over time) is 7280 ng·h/mL in [2] (human, plasma, oral, Compound I 150 mg multiple doses alone, GLSM) and 8140 ng·h/mL in [2] (human, plasma, oral, SOF 400 mg + Compound I 150 mg, GLSM). The Cmax in data set [2] (human, plasma, oral, Compound I 150 mg multiple doses alone, GLSM, read-out: Cmax) came out at 932 ng/mL; in data set [2] (human, plasma, oral, SOF 400 mg + Compound I 150 mg, GLSM, read-out: Cmax), 988 ng/mL. Also, the “activity against genotype 1-6 HCV” value with genotype 1-6 HCV is “potent activity”.
`C[C@H](NP(=O)(O)OC[C@H]1O[C@@H](n2ccc(=O)[nH]c2=O)[C@](C)(F)[C@@H]1O)C(=O)O` [SOF metabolite I]: in [2], the “AUCinf % GLSM Ratio … (90% CI)” value is given as 179.42 (165.03, 195.06) %; the “AUClast % GLSM Ratio … (90% CI)” value is listed as 182.35 (167.52, 198.50) %; the “Cmax % GLSM Ratio (SOF + Compound I/SOF) (90% CI)” value was 161.68 (145.27, 179.94) %; the “increase in AUC when SOF coadministered with Compound I” value is “approximately 1.8 fold”. Further, the “increase in Cmax when SOF coadministered with Compound I” value in data set [2] is recorded as “approximately 1.6 fold”. In data set [2] (setting [9]), the AUCinf came out at 3455.70 ng·h/mL, the AUClast is 3394.32 ng·h/mL and the Cmax is 736.88 ng/mL. In data set [2] (setting [7]), this compound came in with an AUCinf of 1926.09 ng·h/mL, an AUClast of 1861.41 ng·h/mL and a Cmax of 455.77 ng/mL.

(Values after US11707479B2, “Combination formulation of two antiviral compounds” (priority 2013, dated 2023).)
